From ChEMBL document CHEMBL1921700, “Synthesis of novel 3-carboxamide-benzocoumarin derivatives as orally active antithrombotic agents” (Bioorg Med Chem Lett, 2011)

What was measured:
Mus musculus [1] = test: Ex vivo anticoagulant activity in mouse assessed as prothrombin time in plasma at 30 uM/kg, po after for 3 days; format: functional
Mus musculus [2] = test: Ex vivo antithrombotic activity in mouse assessed as protection against collagen and adrenaline-induced hind limb paralysis or death at 30 uM/kg, po administered 60 mins prior to thrombotic challenge after 1 hr; format: functional, Hindlimb
Mus musculus [3] = test: Toxicity in mouse assessed as increase in bleeding time at 30 uM/kg, po administered 60 mins prior to tail incision after 1 hr relative to aspirin; format: organism-based; conditions: in vivo
Mus musculus [4] = test: Toxicity in mouse assessed as increase in bleeding time at 30 uM/kg, po administered 60 mins prior to tail incision after 3 days relative to aspirin; format: organism-based; conditions: in vivo
Mus musculus [5] = test: Ex vivo antithrombotic activity in mouse assessed as protection against collagen and adrenaline-induced hind limb paralysis or death at 30 uM/kg, po administered 60 mins prior to thrombotic challenge after 3 days; format: functional, Hindlimb

Compound | Time (Mus musculus [1]) [s] | Activity (Mus musculus [2]) [%] | Activity (Mus musculus [3]) [%] | Activity (Mus musculus [4]) [%] | Activity (Mus musculus [5]) [%]
Cc1cc2cc(C(=O)NC3CCCCC3)c(=O)oc2c2ccccc12 | 10.2 | 35 | 53 | 82 | 40
Cc1cc2cc(C(=O)N3CCN(C)CC3)c(=O)oc2c2ccccc12 | 8.1 | 10 | 17 | 55 | 20
Cc1ccc(C(=O)/C=C/c2cc3cc(C(=O)NCCCN4CCOCC4)c(=O)oc3c3ccccc23)cc1 | 11 | 30 | 25 | 45 | 33
Cc1ccc(C(=O)/C=C/c2cc3cc(C(=O)N(C)C)c(=O)oc3c3ccccc23)cc1 | 10.5 | 30 | 59 | 82 | 33
Cc1ccc(C(=O)/C=C/c2cc3cc(C(=O)N4CCN(C)CC4)c(=O)oc3c3ccccc23)cc1 | 8.7 | 20 | 34 | 36 | 22
CCCNC(=O)c1cc2cc(C)c3ccccc3c2oc1=O | 10.2 | 10 | 17 | 55 | 20
Cc1cc2cc(C(=O)N3CCOCC3)c(=O)oc2c2ccccc12 | 11.6 | 20 | 33 | 100 | 33
Cc1ccc(NC(=O)c2cc3cc(/C=C/C(=O)c4ccc(C)cc4)c4ccccc4c3oc2=O)cc1 | 9.5 | 40 | 83 | 109 | 44
CCNC(=O)c1cc2cc(/C=C/C(=O)c3ccc(C)cc3)c3ccccc3c2oc1=O | 11.1 | 40 | 33 | 100 | 44
CNC(=O)c1cc2cc(C)c3ccccc3c2oc1=O | 8.5 | 35 | 48 | 65 | 40
Cc1ccc(C(=O)/C=C/c2cc3cc(C(=O)N4CCOCC4)c(=O)oc3c3ccccc23)cc1 | 11.4 | 20 | 17 | 55 | 30
Cc1cc2cc(C(=O)N3CCCCC3)c(=O)oc2c2ccccc12 | 9.4 | 20 | 59 | 91 | 29
Cc1ccc(C(=O)/C=C/c2cc3cc(C(=O)N4CCCCC4)c(=O)oc3c3ccccc23)cc1 | 9.7 | 30 | 25 | 45 | 42
CC(=O)Oc1ccccc1C(=O)O [ASPIRIN] |  | 37 | 100 |  | 
Cc1ccc(NC(=O)c2cc3cc(C)c4ccccc4c3oc2=O)cc1 | 9.3 | 30 | 58 | 63 | 40
CCCNC(=O)c1cc2cc(/C=C/C(=O)c3ccc(C)cc3)c3ccccc3c2oc1=O | 10.3 | 40 | 100 | 127 | 33
CCNC(=O)c1cc2cc(C)c3ccccc3c2oc1=O | 10.2 | 30 | 45 | 68 | 30
CNC(=O)c1cc2cc(/C=C/C(=O)c3ccc(C)cc3)c3ccccc3c2oc1=O | 9.9 | 20 | 17 | 55 | 22
Cc1cc2cc(C(=O)N(C)C)c(=O)oc2c2ccccc12 | 10 | 20 | 58 | 100 | 40
Cc1ccc(C(=O)/C=C/c2cc3cc(C(=O)NC4CCCCC4)c(=O)oc3c3ccccc23)cc1 | 10.6 | 40 | 84 | 109 | 44
CC(=O)CC(c1ccccc1)c1c(O)c2ccccc2oc1=O (stereo not given) [WARFARIN] | 116 |  |  | 46 | 50
Cc1cc2cc(C(=O)NCCCN3CCOCC3)c(=O)oc2c2ccccc12 | 10.2 | 30 | 50 | 91 | 33
